Data reported in patent US20240002405A1, “ANTIMICROBIAL COMPOUNDS, SYNTHESIS METHODS, AND USES THEREOF” (Ankh Life Sciences Limited, priority 2022, published 2024).
Values after ≈ are worked out from the molar mass of the structure shown. Read-outs that look alike come from different tables or passages of the source. Blank lines part the entries; values can stand above or below the compound they belong to.

Legend:
[1] = test system: S. aureus (ATCC 29213); assay: Minimum bactericidal concentration (MBC) assay, S. aureus; type: cell-based; conditions: Staphylococcus aureus, ATCC29213, 24 h, read-out: MBC (kills bacteria)
Method: (§1) (f) Determination of MBC: MBC was determined by sampling all the macroscopically clear wells. Before sampling, the wells were gently mixed by flushing them with a pipette, and a 5 μL was removed and placed on an agar plate suitable for the growth of the microbe being tested. The agar plate was divided into three parts to test three trials of a single concentration. The sample was allowed to be absorbed into the agar for ˜30 minutes. The plates were then incubated for 24 hours at 37° C. After incubation, the plates were examined to determine the compound concentration at which 99.9% killing was achieved.

[2] = test system: MRSA (ATCC 43300); assay: Minimum bactericidal concentration (MBC) assay, MRSA; type: cell-based; conditions: Staphylococcus aureus
Method: as §1

[3] = test system: MRSA: S. aureus resistant to methicillin and oxacillin (ATCC 43300); assay: Broth microdilution MIC assay, MRSA; conditions: Staphylococcus aureus, ATCC43300|MRSA, read-out: MIC (bacterial growth inhibition)
[4] = test system: E. coli (ATCC 25922); assay: Broth microdilution MIC assay, E. coli
[5] = test system: S. aureus (ATCC 29213); assay: Broth microdilution MIC assay, S. aureus; conditions: for MIC: Staphylococcus aureus
[6] = test system: E. faecalis (ATCC 29212); assay: Minimum bactericidal concentration (MBC) assay, E. faecalis; type: cell-based, Enterococcus faecalis
Method: as §1

[7] = test system: VREF (ATCC 51299); assay: Minimum bactericidal concentration (MBC) assay, VREF; type: cell-based, Enterococcus faecalis; conditions: Enterococcus faecalis, ATCC51299, read-out: MBC (bactericidal activity)
Method: as §1

[8] = test system: VREF: E. faecalis resistant to vancomycin (ATCC 51299); assay: Broth microdilution MIC assay, VREF; conditions: Enterococcus faecalis, ATCC51299, read-out: MIC (bacterial growth inhibition)
[9] = test system: E. faecalis (ATCC 29212); assay: Broth microdilution MIC assay, E. faecalis; conditions: Enterococcus faecalis, ATCC29212, read-out: MIC (bacterial growth inhibition)
[10] = test system: gram positive and negative bacteria; assay: Antibacterial testing against gram positive and negative bacteria; type: cell-based
Method: In addition to the harmaline dimers compounds, other bicyclic indole compounds (203, 233, 476/6 and 504/6,) were also tested against gram positive and negative bacteria. Particularly, the indole ethyl urea molecules 203, 233 and the tryptamide dimer molecules 476/6, 504/6, as shown below, were tested.

[11] = test system: Candida albicans (ATCC 18804); assay: Antifungal broth microdilution MIC assay; type: cell-based; conditions: for MIC: Candida albicans, ATCC18804, C. albicans, read-out: MIC (antifungal growth inhibition)
Method: Synthesized compounds were tested for antifungal activity towards the fungus strain, Candida albicans. […] Different concentrations of the compounds were tested for the exact same number of fungi, and the growth is monitored with time. MIC was determined by using the broth microdilution assay. Fungus strain, C. albicans was purchased from ATCC (ID: 18804) for the studies. […] This solution was used to make a working solution by preparing a 1:50 dilution, followed by a 1:20 dilution, with RPMI 1640 medium to obtain 2× test inoculum. The 2× inoculum is diluted 1:1 to achieve the final inoculum size (0.5×10^3 to 2.5×10^3 cells per mL). RPMI 1640 medium was used with L-glutamine and phenol red as a pH indicator but without bicarbonate and a glucose concentration of 0.2%. […] All plates were then read visually under normal laboratory lighting using a mirror viewer. Wells were scored for the growth compared to that of the drug free control well. Plates were read at 530 nm with subtraction of the blank from the reading of each well. Turbidity (OD) increases as the fungus grows over time.

[12] = test system: engineered Salmonella typhimurium strain (umuC, β-galactosidase); conditions: S9 not stated
[13] = ATCC29213, read-out: MIC (bacterial growth inhibition), S. aureus, time not given

MIC ([3]; 24 h): 64.7 µg/mL (≈ 125 µM)
MIC (bacterial growth inhibition) ([4]; E. coli): no activity was observed
MIC ([5]; ATCC29213, 24 h, read-out: MIC (bacterial growth inhibition), S. aureus, up to 24 hours): 64.7 µg/mL (≈ 125 µM)
Compound: COc1ccc2c3c([nH]c2c1)C(CC(CC1=NCCc2c1[nH]c1cc(OC)ccc21)c1ccccn1)=NCC3 [GK517.2]
MBC ([1]; S. aureus): > 129 µg/mL
MBC ([2]; MRSA, read-out: MBC): > 129 µg/mL
MBC ([2]; MRSA, read-out: MRSA-MBC): > 250 µM

Compound: CN[C@H](CC(C)C)C(=O)N[C@H]1C(=O)N[C@@H](CC(N)=O)C(=O)N[C@H]2C(=O)N[C@H]3C(=O)N[C@H](C(=O)N[C@H](C(=O)O)c4cc(O)cc(O)c4-c4cc3ccc4O)[C@H](O)c3ccc(c(Cl)c3)Oc3cc2cc(c3O[C@@H]2O[C@H](CO)[C@@H](O)[C@H](O)[C@H]2O[C@H]2C[C@](C)(N)[C@H](O)[C@H](C)O2)Oc2ccc(cc2Cl)[C@H]1O [Vancomycin, reference compound]
MBC [1]: 1.56 µg/mL (≈ 1.08 µM)
MBC [2]: 1.56 µg/mL
MBC (kills bacteria) [6]: 6.25 µg/mL (≈ 4.31 µM)
MBC [7]: > 100 µg/mL
MIC [3]: 1.56 µg/mL (≈ 1.08 µM)
MIC [8]: 25 µg/mL (≈ 17.3 µM)
MIC ([5]; ATCC29213, read-out: MIC (bacterial growth inhibition)): 1.56 µg/mL (≈ 1.08 µM)
MIC [9]: 3.12 µg/mL (≈ 2.15 µM)

MIC [5, 13]: 25 µg/mL (≈ 71.1 µM)
Compound: COc1ccc2c3c([nH]c2c1)C(/C=C/c1cc(Cl)ccc1N)=NCC3 [GK350]
concentration showing ~50% growth inhibition ([4]; E. coli): 1.5 µg/mL

MIC (bacterial growth inhibition) ([4]; E. coli): didn't show any activity
MIC [5, 13]: 100 µg/mL (≈ 315 µM)
Compound: COc1ccc2c3c([nH]c2c1)C(/C=C/c1ccccc1N)=NCC3 [GK317]

Compound: COc1ccc2[nH]cc(CCNC(N)=O)c2c1 [Compound 233]
bacteriostatic/bactericidal activity [10]: no bacteriostatic/bactericidal activity observed

Compound: COc1ccc2c3c([nH]c2c1)C(CC(CC1=NCCc2c1[nH]c1cc(OC)ccc21)c1c[nH]c2ccc(C#N)cc12)=NCC3 [GK580, 3-(1,3-bis(7-methoxy-4,9-dihydro-3H-pyrido[3,4-b]indol-1-yl)propan-2-yl)-1H-indole-5-carbonitrile]
MBC ([1]; S. aureus): 11 µg/mL (≈ 18.9 µM)
MBC ([2]; MRSA, read-out: MBC): 7 µg/mL
MBC (kills bacteria) [6]: > 88 µg/mL
MIC ([11]; after 24 hours of incubation): 12.2 µg/mL (≈ 21.1 µM)
MIC ([11]; after 48 hours of incubation): 12.2 µg/mL (≈ 21.1 µM)
concentration inhibiting fungal growth ([11]; time not stated): 12.5 µg/mL
genotoxic concentration (no genotoxicity up to) [12]: > 30 µg/mL
MIC [3]: 3.5 µg/mL (≈ 6.03 µM)
MIC [8]: > 88 µg/mL
MIC ([4]; Escherichia coli, ATCC25922, read-out: MIC (bacterial growth inhibition), E. coli): 12.5 µg/mL (≈ 21.5 µM)
MIC (bacterial growth inhibition) ([5]; S. aureus, time not given): 3.5 µg/mL (≈ 6.03 µM)
MIC [5, 13]: 5.5 µg/mL (≈ 9.47 µM)
MIC [9]: 44 µg/mL (≈ 75.8 µM)

Compound: COc1ccc2c3c([nH]c2c1)C(CC(CC1=NCCc2c1[nH]c1cc(OC)ccc21)c1c[nH]c2ccc(C(=O)O)cc12)=NCC3 [GK599]
concentration at which activity is shown ([4]; E. coli): 100 µg/mL
concentration at which activity is shown ([5]; S. aureus): 6.25 µg/mL

MIC ([11]; after 24 hours of incubation): 50 µg/mL (≈ 138 µM)
MIC [5, 13]: 12.5 µg/mL (≈ 34.6 µM)
Compound: COc1ccc2c3c([nH]c2c1)C(/C=C/c1cc(C(=O)O)ccc1N)=NCC3 [GK360]
concentration showing ~50% growth inhibition ([4]; E. coli): 0.78 µg/mL

Compound: COc1ccc2c(CCNC(=O)CCCC(=O)NCCc3c[nH]c4cc(OC)ccc34)c[nH]c2c1 [476/6]
bacteriostatic/bactericidal activity [10]: no bacteriostatic/bactericidal activity observed

Compound: COc1ccc2c3c([nH]c2c1)C(/C=C\c1cc(Br)ccc1/N=C/c1cc(Br)ccc1N)=NCC3 [GK578, 4-bromo-2-((E)-((4-bromo-2-((Z)-2-(7-methoxy-4,9-dihydro-3H-pyrido[3,4-b]indol-1-yl)vinyl)phenyl)imino)methyl)aniline]
concentration showing significant reduction in growth ([4]; E. coli): 3.12 µg/mL
inhibition in growth ([4]; incubated with E. coli for 10-75 hrs): 50%
